From ChEMBL document CHEMBL5329215, “Review and prospects of targeted therapies for Spleen tyrosine kinase (SYK)” (Bioorg Med Chem, 2023)
pEC50, pIC50: −log10 of the molar value.

Tests used:
[1] = target: Tyrosine-protein kinase SYK (Homo sapiens, UniProt P43405); assay: Inhibition of human SYK at Py+3 pocket
[2] = PROTAC activity at E3 ubiquitin ligase (unknown origin)/STAT5 (unknown origin) assessed as […]

pIC50 [1] | pEC50 [2] | SMILES
4.42 |  | O=C(O)CCCCN(CCCC1CCCCC1)S(=O)(=O)/C=C/c1ccc(NC(=O)C2CCC(C(C(=O)O)C(=O)O)CC2)cc1 (configuration not stated)
 | 7.00 | CN(CCCC#Cc1cccc2c1CN(C1CCC(=O)NC1=O)C2=O)C(=O)CCN(C(=O)[C@@H]1CCCN1C(=O)[C@H](NC(=O)c1cc2cc(C(F)(F)P(=O)(O)O)ccc2s1)C(C)(C)C)c1ccc(-c2nccs2)cc1 (some centres not stated)
